Patent publication US8273749B2, “N-substituted oxindoline derivatives as calcium channel blockers” (Merck Sharp & Dohme Corp., priority 2007, dated 2012)

target: T1, N-type calcium channel (Cav2.2) (Homo sapiens, UniProt Q00975); assay: Cav2.2 (N-type) calcium channel block: fluorescent potassium-depolarization assay and IonWorks / PatchXpress / manual patch clamp electrophysiology; assay type: cell-based; conditions: aforementioned assays (Assay Examples 1-3); which assay or condition is not specified; read-out: IC50 in antagonizing the N-type calcium channel
T1 construct: expressed in transfected cells
T1 sequence (Q00975 whole entry): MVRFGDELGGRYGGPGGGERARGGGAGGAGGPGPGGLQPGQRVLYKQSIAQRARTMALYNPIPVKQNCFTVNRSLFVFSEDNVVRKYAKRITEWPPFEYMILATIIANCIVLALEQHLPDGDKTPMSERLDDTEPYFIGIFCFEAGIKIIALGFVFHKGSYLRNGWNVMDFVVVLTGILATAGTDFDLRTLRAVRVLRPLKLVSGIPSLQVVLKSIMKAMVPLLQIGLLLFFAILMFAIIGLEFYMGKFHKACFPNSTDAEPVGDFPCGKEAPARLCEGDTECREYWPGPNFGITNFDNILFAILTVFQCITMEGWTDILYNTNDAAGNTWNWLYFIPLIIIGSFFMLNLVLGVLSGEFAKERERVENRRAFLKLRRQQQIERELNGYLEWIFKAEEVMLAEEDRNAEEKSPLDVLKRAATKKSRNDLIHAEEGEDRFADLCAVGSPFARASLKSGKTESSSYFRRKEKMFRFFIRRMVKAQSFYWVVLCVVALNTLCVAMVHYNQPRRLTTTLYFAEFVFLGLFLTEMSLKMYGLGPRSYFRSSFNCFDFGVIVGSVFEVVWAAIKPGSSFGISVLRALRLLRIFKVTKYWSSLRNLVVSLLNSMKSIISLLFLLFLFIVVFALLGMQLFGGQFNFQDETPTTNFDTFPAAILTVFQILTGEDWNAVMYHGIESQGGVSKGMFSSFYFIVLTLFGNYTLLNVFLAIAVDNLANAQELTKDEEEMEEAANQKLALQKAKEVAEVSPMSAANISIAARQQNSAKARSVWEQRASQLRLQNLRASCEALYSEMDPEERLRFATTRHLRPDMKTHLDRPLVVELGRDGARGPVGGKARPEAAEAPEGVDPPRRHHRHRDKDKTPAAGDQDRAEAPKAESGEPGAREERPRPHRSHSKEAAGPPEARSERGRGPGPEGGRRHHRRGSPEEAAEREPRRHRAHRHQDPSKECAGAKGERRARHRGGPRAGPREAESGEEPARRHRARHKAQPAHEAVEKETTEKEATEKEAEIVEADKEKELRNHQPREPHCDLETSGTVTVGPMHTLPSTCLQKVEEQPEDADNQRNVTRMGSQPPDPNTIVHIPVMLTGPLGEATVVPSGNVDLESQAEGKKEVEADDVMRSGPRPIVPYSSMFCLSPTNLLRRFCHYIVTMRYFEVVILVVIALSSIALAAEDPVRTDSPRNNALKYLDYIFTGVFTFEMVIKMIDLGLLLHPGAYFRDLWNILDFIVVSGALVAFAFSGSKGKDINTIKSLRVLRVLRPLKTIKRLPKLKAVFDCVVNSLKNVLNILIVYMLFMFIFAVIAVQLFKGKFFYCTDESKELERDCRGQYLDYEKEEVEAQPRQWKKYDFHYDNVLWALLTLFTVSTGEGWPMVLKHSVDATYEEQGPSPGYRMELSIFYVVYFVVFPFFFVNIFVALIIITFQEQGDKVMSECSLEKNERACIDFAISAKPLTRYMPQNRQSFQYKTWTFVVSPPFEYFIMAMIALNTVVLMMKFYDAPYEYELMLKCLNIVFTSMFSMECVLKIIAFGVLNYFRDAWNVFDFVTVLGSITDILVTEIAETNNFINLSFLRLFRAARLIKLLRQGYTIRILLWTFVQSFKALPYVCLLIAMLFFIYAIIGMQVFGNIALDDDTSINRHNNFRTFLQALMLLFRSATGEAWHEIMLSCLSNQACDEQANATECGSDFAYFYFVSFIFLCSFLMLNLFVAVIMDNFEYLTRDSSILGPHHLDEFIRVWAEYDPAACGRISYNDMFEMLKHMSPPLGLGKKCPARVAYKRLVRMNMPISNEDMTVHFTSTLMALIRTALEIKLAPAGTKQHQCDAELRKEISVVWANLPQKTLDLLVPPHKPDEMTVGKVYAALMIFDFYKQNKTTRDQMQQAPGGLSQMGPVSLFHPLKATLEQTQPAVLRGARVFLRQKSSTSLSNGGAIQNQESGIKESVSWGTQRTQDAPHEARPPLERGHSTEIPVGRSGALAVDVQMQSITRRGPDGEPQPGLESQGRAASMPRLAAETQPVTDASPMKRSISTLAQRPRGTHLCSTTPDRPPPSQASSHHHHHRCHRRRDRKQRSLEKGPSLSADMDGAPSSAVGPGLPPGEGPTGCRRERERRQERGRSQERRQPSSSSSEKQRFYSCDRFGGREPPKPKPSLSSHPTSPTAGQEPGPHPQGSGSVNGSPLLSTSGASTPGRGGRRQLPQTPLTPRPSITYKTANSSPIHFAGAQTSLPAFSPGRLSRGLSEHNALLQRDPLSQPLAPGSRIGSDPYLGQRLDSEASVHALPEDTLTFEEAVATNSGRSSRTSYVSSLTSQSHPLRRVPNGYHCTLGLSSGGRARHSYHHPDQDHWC
Text: Human Cav2.2 channels were stably expressed in HEK293 cells along with alpha2-delta and beta subunits of voltage-gated calcium channels. An inwardly rectifying potassium channel (Kir2.3) was also expressed in these cells to allow more precise control of the cell membrane potential by extracellular potassium concentration. At low bath potassium concentration, the membrane potential is relatively negative, and is depolarized as the bath potassium concentration is raised. In this way, the bath potassium concentration can be used to regulate the voltage-dependent conformations of the channels. Compounds are incubated with cells in the presence of low (4 mM) potassium or elevated (12, 25 or 30 mM) potassium to determine the affinity for compound block of resting (closed) channels at 4 mM potassium or affinity for block of open and inactivated channels at 12, 25 or 30 mM potassium. After the incubation period, Cav2.2 channel opening is triggered by addition of higher concentration of potassium (70 mM final concentration) to further depolarize the cell. The degree of state-dependent block can be estimated from the inhibitory potency of compounds after incubation in different potassium concentrations.
Calcium influx through Cav2.2 channels is determined using a calcium-sensitive fluorescent dye in combination with a fluorescent plate reader. Fluorescent changes were measured with either a VIPR (Aurora Instruments) or FLIPR (Molecular Devices) plate reader.
• 1. Seed cells in Poly-D-Lysine Coated 96- or 384-well plate and keep in a 37° C.-10% CO2 incubator overnight • 2. […] Read cell plate on VIPR instrument, Excitation=480 nm, Emission=535 nm • 9. With VIPR continuously reading, add 0.1 mL (96-well plate) or 0.03 mL (384-well plate) of Depolarization Buffer, which is 2× the final assay concentration, to the cell plate. […]
Block of N-type calcium channels is evaluated utilizing the IonWorks HT 384 well automated patch clamp electrophysiology device. […]

**Q.** How did the IC50 turn out when `CC1(Cc2cncnc2)C(=O)N(c2nc[nH]n2)c2ccc(-c3ccc(F)c(Cl)c3)cc21` (stereo not drawn) [Example 2, 5-(3-chloro-4-fluorophenyl)-3-methyl-3-(pyrimidin-5-ylmethyl)-1-(1H-1,2,4-triazol-3-yl)-1,3-dihydro-2H-indol-2-one] was run?
**A.** The IC50 was 230 nM.

**Q.** With `CC1(Cc2cncnc2)C(=O)N(c2cnc(N)cn2)c2ccc(-c3ccc(F)c(Cl)c3)cc21` (stereo not drawn) [Example 10, 1-(5-aminopyrazin-2-yl)-5-(3-chloro-4-fluorophenyl)-3-methyl-3-(pyrimidin-5-ylmethyl)-1,3-dihydro-2H-indol-2-one] as the molecule, how does the IC50 read?
**A.** The IC50 was 520 nM.

**Q.** For `Cn1cnc(N2C(=O)C(C)(Cc3cncnc3)c3cc(-c4cccc(OC(F)(F)F)c4)ccc32)c1` (stereo not drawn) [Example 18, 3-methyl-1-(1-methyl-1H-imidazol-4-yl)-3-pyrimidin-5-ylmethyl-5-(3-trifluoromethoxy-phenyl)-1,3-dihydro-indol-2-one], which IC50 is on record?
**A.** Its IC50 is 260 nM.
